The term IC50 denotes the point on the concentration scale where inhibition reaches its midpoint. High values mean weaker potency in that assay, low ones greater potency in that assay.

The record followed here is ChEMBL document CHEMBL1127557, “Novel potassium-channel openers: preparation and pharmacological evaluation of racemic and optically active N-(6-amino-3-pyridyl)-N'-bicycloalkyl-N"-cyanoguanidine derivatives” (J Med Chem, 1994).

Data set [1] in a line: Ratio between Na+ and K+ excretion values at a dose of 1 mg/kg. It counts as ADME, organism-based. Also noted: dose 1 mg/kg. As to conditions: in vivo.
Data set [2] has as its system Rattus norvegicus. The data set can be described thus: Compound was tested for oral diuretic effect on spontaneously hypertensive rats by measuring the urinary volume at 5 mg/kg concentration. The data set is classed as functional, Urine.
Data set [3] is filed under the species Rattus norvegicus. The data set is described as follows: Compound was tested for vasorelaxant activity on the basis of ability to relax endothelium-denuded rat aortic strips toned with 20 mM KCl. It counts as functional, Aorta.
In data set [4] the test system is Rattus norvegicus. The data set can be described thus: Compound was tested for oral diuretic effect on spontaneously hypertensive rats by measuring the potassium excretion at 1 mg/kg concentration. It counts as ADME, organism-based, Urine. The arrangement: dose 1 mg/kg, route oral. As to conditions: in vivo.
The species entered for data set [5] is Rattus norvegicus. The data set can be described thus: Compound was tested for oral diuretic effect on spontaneously hypertensive rats by measuring the urinary volume at vehicle concentration. The data set is classed as functional, Urine.
Data set [6] concerns Rattus norvegicus. The data set is described as follows: Compound was tested for oral diuretic effect on spontaneously hypertensive rats by measuring the excretion of sodium at 5 mg/kg concentration. It counts as ADME, organism-based, Urine. Also noted: dose 5 mg/kg, route oral. As to conditions: in vivo.
The species entered for data set [7] is Rattus norvegicus. The data set is described as follows: Compound was tested for oral diuretic effect on spontaneously hypertensive rats by measuring the excretion of sodium at vehicle concentration. The data set is classed as ADME, organism-based, Urine. As to conditions: in vivo.
The test system of data set [8] is Rattus norvegicus. The data set can be described thus: Compound was tested for hypotensive activity in anesthetized normotensive rats by intravenous injection. Systolic blood pressure measured 30 min after injection. It counts as functional.
The test system of data set [9] is Rattus norvegicus. The data set is described as follows: Compound was tested for oral diuretic effect on spontaneously hypertensive rats by measuring the excretion of sodium at 1 mg/kg concentration. The data set is classed as ADME, organism-based, Urine. Also noted: dose 1 mg/kg, route oral. As to conditions: in vivo.
The test system of data set [10] is Rattus norvegicus. The data set is described as follows: Compound was tested for oral diuretic effect on spontaneously hypertensive rats by measuring the urinary volume at 1 mg/kg concentration. The data set is classed as functional, Urine.
The species named for data set [11] is Rattus norvegicus. The data set is described as follows: Compound was tested for oral diuretic effect on spontaneously hypertensive rats by measuring the potassium excretion at vehicle concentration. The data set is classed as ADME, organism-based, Urine. As to conditions: in vivo.
Data set [12] is described as follows: Ratio between Na+ and K+ excretion values at a dose of 5 mg/kg. The data set is classed as ADME, organism-based. The arrangement: dose 5 mg/kg. As to conditions: in vivo.
Data set [13] deals with Rattus norvegicus. The data set can be described thus: Compound was tested for oral diuretic effect on spontaneously hypertensive rats by measuring the potassium excretion at 5 mg/kg concentration. The data set is classed as ADME, organism-based, Urine. The arrangement: dose 5 mg/kg, route oral. As to conditions: in vivo.
The test system of data set [14] is Rattus norvegicus. The data set can be described thus: Compound was tested for hypotensive activity in anesthetized normotensive rats by intravenous injection, Systolic blood pressure measured 30 min after injection. It counts as functional. As to conditions: 0.5 h.
Data set [15] concerns Rattus norvegicus. The data set is described as follows: Compound was tested for oral diuretic effect on spontaneously hypertensive rats by measuring the excretion of sodium at 5 mg/kg concentration. It counts as ADME, organism-based, Urine. The arrangement: dose 5 mg/kg, route oral. As to conditions: in vivo.
Setting [16] is: Rattus norvegicus, Blood, iv, 0.5 h, read-out: ED30.

Structures are written as SMILES.

Turning to `Cl.N#CN/C(=N\[C@H]1C[C@H]2CC[C@@H]1C2)Nc1ccc(N)nc1` (racemic), the Ratio worked out at 1.54 in [1] and 1.27 in data set [12]. For the same compound, the values for the Urinary volume in the data set with Rattus norvegicus [2], in the data set listed under Rattus norvegicus [5] and in the data set with Rattus norvegicus [10] were 18.37 ml kg-1 5hr-1, 6.84 ml kg-1 5hr-1 and 5.53 ml kg-1 5hr-1, respectively. The compound also yielded an IC50 in the data set listed under Rattus norvegicus [3] of 392 nM. For the same compound, the “K+ excretion” value was 0.646 m equiv 5hr-1 kg-1 with Rattus norvegicus [4], 0.8 m equiv 5hr-1 kg-1 in the data set listed under Rattus norvegicus [11] and 1.46 m equiv 5hr-1 kg-1 in the data set with Rattus norvegicus [13]. Moreover, the figures for the “Na+ excretion” value in the data set on Rattus norvegicus [6], in the data set listed under Rattus norvegicus [7] and with Rattus norvegicus [9] were 1.865 m equiv 5hr-1 kg-1, 1.072 m equiv 5hr-1 kg-1 and 0.89 m equiv 5hr-1 kg-1, respectively. In the data set with Rattus norvegicus [8] (setting [16]), the ED30 was found to be 0.17 mg/kg.

Compound `C[C@]12CC[C@H](C[C@@H]1/N=C(\NC#N)Nc1ccc(N)nc1)C2.Cl` showed an IC50 in the data set listed under Rattus norvegicus [3] of 71 nM. The ED30 in the data set on Rattus norvegicus [8] is 0.28 mg/kg.

Take `N#CN/C(=N\[C@@H]1C[C@H]2CC[C@@H]1C2)Nc1ccc(N)nc1` (stereo in doubt; (+)-9): in the data set listed under Rattus norvegicus [3], the concentration for half-maximal inhibition (IC50) is 267 nM. The compound further displayed an ED30 in the data set on Rattus norvegicus [8] of 0.4 mg/kg.

Take `C[C@]12CC[C@H](C[C@@H]1/N=C(\NC#N)Nc1ccc(N)nc1)C2`: in the data set filed under Rattus norvegicus [3] (Rattus norvegicus, Aorta), inhibition was half-maximal at 118 nM (IC50). Besides, in the data set on Rattus norvegicus [8] (setting [16]), the ED30 stood at 0.18 mg/kg.

Take `CC(N/C(=N\C#N)Nc1ccncc1)C(C)(C)C` (stereo not given) [PINACIDIL ANHYDROUS]: the Ratio in data set [1] is listed as 0.78; in data set [12] it was 0.12. In addition, the Urinary volume with Rattus norvegicus [2] was 2.56 ml kg-1 5hr-1; in the data set listed under Rattus norvegicus [5], 5.15 ml kg-1 5hr-1; in the data set with Rattus norvegicus [10], 7.62 ml kg-1 5hr-1. The same compound had an IC50 in the data set listed under Rattus norvegicus [3] (Rattus norvegicus, Aorta) of 380 nM. The “K+ excretion” value was 1.546 m equiv 5hr-1 kg-1 in the data set with Rattus norvegicus [4], 1.078 m equiv 5hr-1 kg-1 in the data set listed under Rattus norvegicus [11] and 0.584 m equiv 5hr-1 kg-1 in the data set with Rattus norvegicus [13]. Moreover, the “Na+ excretion” value with Rattus norvegicus [6] came out at 0.078 m equiv 5hr-1 kg-1; in the data set listed under Rattus norvegicus [7], 1.357 m equiv 5hr-1 kg-1; in the data set on Rattus norvegicus [9], 1.27 m equiv 5hr-1 kg-1. In the data set on Rattus norvegicus [8] (setting [16]), the ED30 came out at 0.15 mg/kg.

With `Cl.N#CN/C(=N\[C@@H]1CC2CCC1C2)Nc1ccc(N)nc1` (mixture of isomers), the results for the Ratio in [1] and in data set [12] were 1.08 and 0.5, respectively. Besides, the figures for the Urinary volume with Rattus norvegicus [2], in the data set filed under Rattus norvegicus [5] and in the data set on Rattus norvegicus [10] were 4.68 ml kg-1 5hr-1, 5.15 ml kg-1 5hr-1 and 8.77 ml kg-1 5hr-1, respectively. The “K+ excretion” value is reported as 1.35 m equiv 5hr-1 kg-1 in the data set with Rattus norvegicus [4], 1.078 m equiv 5hr-1 kg-1 in the data set filed under Rattus norvegicus [11] and 1.249 m equiv 5hr-1 kg-1 in the data set with Rattus norvegicus [13]. The compound also had an ED30 with Rattus norvegicus [14] of 0.51 mg/kg. Besides, the “Na+ excretion” value is 1.357 m equiv 5hr-1 kg-1 in the data set filed under Rattus norvegicus [7], 1.523 m equiv 5hr-1 kg-1 with Rattus norvegicus [9] and 0.694 m equiv 5hr-1 kg-1 in the data set on Rattus norvegicus [15].

Consider `N#CN/C(=N\[C@H]1C[C@H]2CC[C@@H]1C2)Nc1ccc(N)nc1`, for which, in the data set listed under Rattus norvegicus [3], the IC50 was found to be 90 nM. Also, in the data set on Rattus norvegicus [8] (setting [16]), the ED30 came to 0.1 mg/kg.

As for `N#CN/C(=N\[C@@H]1C[C@H]2CC[C@@H]1C2)Nc1ccc(N)nc1` (stereo in doubt; (-)-9), in the data set filed under Rattus norvegicus [3] (Rattus norvegicus, Aorta), the midpoint of inhibition, the IC50, lay at 278 nM. Further, the ED30 in the data set on Rattus norvegicus [8] (setting [16]) worked out at 0.57 mg/kg.

In the case of `CC1(C)Oc2ccc(C#N)cc2[C@@H](N2CCCC2=O)[C@@H]1O` [CROMAKALIM], the IC50 in the data set listed under Rattus norvegicus [3] (Rattus norvegicus, Aorta) came out at 110 nM. Moreover, in the data set on Rattus norvegicus [8] (setting [16]), the ED30 came to 0.11 mg/kg.

In the data set filed under Rattus norvegicus [3] (Rattus norvegicus, Aorta), `Cl.N#CN/C(=N\C1CC2CCC1C2)Nc1ccc(N)nc1` (stereo not given) gave an IC50 of 593 nM. Moreover, in the data set with Rattus norvegicus [8] (setting [16]), the ED30 was determined as 0.74 mg/kg.

`C[C@]12CC[C@H](C[C@@H]1/N=C(\NC#N)Nc1ccc(N)nc1)C2.Cl` (racemic): the Ratio is 1.08 in data set [1] and 0.59 in [12]. In addition, the Urinary volume in the data set on Rattus norvegicus [2] came to 7.31 ml kg-1 5hr-1; in the data set listed under Rattus norvegicus [5], 6.84 ml kg-1 5hr-1; in the data set with Rattus norvegicus [10], 6.92 ml kg-1 5hr-1. In the data set listed under Rattus norvegicus [3], this compound returned an IC50 of 79 nM. Further, the “K+ excretion” value came to 0.747 m equiv 5hr-1 kg-1 with Rattus norvegicus [4], 0.8 m equiv 5hr-1 kg-1 in the data set listed under Rattus norvegicus [11] and 0.515 m equiv 5hr-1 kg-1 with Rattus norvegicus [13]. Also, the “Na+ excretion” value in the data set with Rattus norvegicus [6] was determined as 0.311 m equiv 5hr-1 kg-1; in the data set listed under Rattus norvegicus [7], 1.072 m equiv 5hr-1 kg-1; in the data set with Rattus norvegicus [9] it was 0.8 m equiv 5hr-1 kg-1. Moreover, the ED30 in the data set on Rattus norvegicus [8] (setting [16]) amounted to 0.2 mg/kg.
